Reference: patent US20250049869A1, “USE OF AURICULARIA AURICULA TOTAL POLYSACCHARIDE OR MONOMERIC POLYSACCHARIDE IN PREPARATION OF PD-L1 INHIBITOR” (priority 2023, published 2025)
Entries after “also recorded” stand apart in the source; their conditions may differ.

Columns and labels:
PD-L1 [1] = test: Flow cytometry of PD-L1 expression in NCI-H157 cells; format: cell-based; settings: flow cytometry, 1, 2 and 5 mg/mL
Procedure: (§1) NCI-H157 or LLC cells in a 6-well plate were treated with low, medium, and high doses of ME-2 at 1, 2, and 5 mg/mL, respectively, for corresponding time, and the cells were stained with a fluorescent antibody. Fluorescence intensity was measured by flow cytometry.

LLC cells = test: CCK8 in vitro cytotoxicity assay, LLC; format: cell-based, mouse; settings: CCK8, gradient concentration, 24 h
Procedure: (§2) CCK8 was used to detect the cytotoxicity of ME-2 to NCI-H157 and LLC cells. H157 or LLC cells were inoculated overnight in 96-well cell culture plate at a concentration of 1×10^4/mL. The gradient concentration of ME-2 was prepared in the medium, and CCK8 solution was added into the 96-well cell culture plate after 24 h of action. OD values were measured at 450 nm by an enzyme-linked immunosorbent assay (ELISA) instrument.

[2] = test system: LLC lung cancer transplanted tumor; test: Mouse lung cancer (LLC) transplanted tumor model
PD-L1/PD-1 interaction = molecular target: T1, PD-L1/PD-1 interaction (Homo sapiens, UniProt Q9NZQ7); test: PD-1Fc binding to PD-L1 on NCI-H157 cells (flow cytometry and confocal); format: cell-based; settings: 24 h of ME-2 treatment, human recombinant PD-1Fc, dose-dependent
T1 construct: NCI-H157 cells were inoculated on a 24-well cell culture plate; endogenous in cells; host or cells: NCI-H157
Procedure: NCI-H157 cells were inoculated on a 24-well cell culture plate and subjected to gradient dosing treatment for time needed after cell adhesion. The cells were fixed at room temperature with a 4% solution of paraformaldehyde. The cells were washed with PBS buffer several times. An appropriate amount of human recombinant PD-1Fc protein was added to the fixed cells and incubated for 1 h, and the cells were washed with PBS buffer several times. Anti-human IgG (Alexa Fluor 488) fluorescent secondary antibody was added and incubated for 30 min. After nuclear staining, a glycerol sealing layer was applied. Green fluorescence signals were observed under a fluorescence microscope and photographed for statistics, or the fluorescence intensity was measured by flow cytometry.

NCI-H157 cells [3] = test: Co-culture of H157 tumor cells with stimulated Jurkat T cells, crystal violet staining; format: cell-based; settings: gradient dosing, co-culture 24 h
Procedure: In order to further evaluate the anti-tumor effect of ME-2 in the experiment of co-culture of tumor cells and T cells, H157 cells were inoculated into a 24-well culture plate, subjected to gradient dosing treatment for time needed, and co-cultured with stimulated Jurkat T cells for 24 h. The tumor survival was observed under a microscope after 4% polyformaldehyde fixation and crystal violet staining. The specific manifestation was the difference in the depth of staining in the different dosages and concentrations of ME-2.

NCI-H157 cells [4] = test: CCK8 in vitro cytotoxicity assay, NCI-H157; format: cell-based; settings: CCK8, gradient concentration, 24 h
Procedure: as §2

PD-1 protein = PD-1 protein (Homo sapiens, UniProt Q15116); test: SPR affinity analysis with PD-1 protein; format: binding
PD-L1 [5] = test: Western blot of PD-L1 expression in mouse lung cancer LLC cells; format: cell-based; settings: concentration and time gradient, most significant at 2 mg/mL, 24 h
Procedure: (§3) The tumor cells in question were non-small cell lung cancer NCI-H157, mouse lung cancer LLC, colon cancer SW620, human osteosarcoma U2OS, non-small cell lung cancer A549, liver cancer HepG-2, and breast cancer MCF-7. The total protein of the above cells was extracted; the protein concentration was determined by bicinchoninic acid (BCA) assay. The samples were loaded and subjected to sodium dodecyl sulfate (SDS) polyacrylamide gel electrophoresis (SDS-PAGE); the membrane was blocked and immunoreacted after transfer, and an enhanced chemiluminescence (ECL) solution was used for development. Picture processing and gray value analysis were performed on the exposure results on ImageJ software. According to the experimental results, the cell lines with high expression of PD-L1 were selected as follows: NCI-H157, LLC, U2OS, and SW620; and the cell lines with low or no expression of PD-L1 were A549, HepG-2, and MCF-7 (see FIGS. 3A and 3B).
Concentration and time gradient ME-2 were applied to act on four tumor cell lines with high expression of PD-L1, respectively. The Western blot method was used for detection, and the experimental method was shown above. […] The downregulation of tumor cell baseline PD-L1 was concentration dependent (see FIG. 5A) and time dependent (see FIG. 5B). […]

PD-L1 [6] = test: Western blot of PD-L1 expression in tumor cells with high expression of PD-L1 (NCI-H157, U2OS, SW620); format: cell-based, human; settings: concentration and time gradient, most significant at 2 mg/mL, 24 h
Procedure: as §3
Concentration and time gradient ME-2 were applied to act on four tumor cell lines with high expression of PD-L1, respectively. The Western blot method was used for detection, and the experimental method was shown above. […] The downregulation of tumor cell baseline PD-L1 was concentration dependent (see FIG. 5A) and time dependent (see FIG. 5B). The downregulation of PD-L1 was most significant when the dose concentration was 2 mg/mL and the administration time was 24 h.
A Western blot was used to detect the effects of Auricularia auricula total polysaccharide METP and Auricularia auricula deacetylated monomeric polysaccharide dME-2 on the expression of PD-L1 in H157 cells, and Auricularia auricula monomeric polysaccharide ME-2 was used as a positive control. The experimental procedure was described in Example 1.

PD-L1 [7] = test: Flow cytometry of PD-L1 expression in LLC cells; format: cell-based, mouse; settings: flow cytometry, 1, 2 and 5 mg/mL
Procedure: as §1

PD-L1 protein = PD-L1 protein (Homo sapiens, UniProt Q9NZQ7); test: SPR affinity analysis with PD-L1 protein (Biacore 8K, CM5 chip); format: binding
Procedure: Biacore 8K high-throughput molecular interaction analysis system, CM5 chip, and phosphate buffered saline (PBS) buffer as the mobile phase of the instrument were used in the whole process of the surface plasmon resonance experiment. The PD-L1 was coupled to the activated CM5 chip using an amino coupling kit. […] After 60 s of dissociation, the chip was regenerated with 10 mM glycine-HCl (pH2.0) and 3 M NaCl at a flow rate of 30 L/min for 30 s. Biacore Evaluation 3.1 software and GraphPad Prism 8.0 software were used to analyze the data and obtain the response curve.

PD-L1 [8] = test: Western blot of IFN-γ-induced PD-L1 expression (A549, HepG-2, MCF-7); format: cell-based; settings: ME-2 and IFN-γ co-acted on cells
Procedure: as §3
Interferon IFN-γ is an important factor in inducing PD-L1 expression in the tumor immune microenvironment. We used low-expression PD-L1 tumor cells (non-small cell lung cancer A549, liver cancer HepG-2, and breast cancer MCF-7). ME-2 and IFN-γ were co-acted on cells; their expression abundance was detected by the Western blot method, and the experimental method was shown above.

PD-L1 and PD-1 protein = PD-L1 and PD-1 protein (Homo sapiens, UniProt Q9NZQ7); test: SPR competitive experiment between ME-2 and PD-1 for PD-L1; format: binding
From the text: Biacore 8K high-throughput molecular interaction analysis system, CM5 chip, and phosphate buffered saline (PBS) buffer as the mobile phase of the instrument were used in the whole process of the surface plasmon resonance experiment. The PD-L1 was coupled to the activated CM5 chip using an amino coupling kit. […] The ME-2 polysaccharide solution with different concentrations was passed through the coupling channel and the blank channel at a certain velocity by using the running buffer. After 60 s of dissociation, the chip was regenerated with 10 mM glycine-HCl (pH2.0) and 3 M NaCl at a flow rate of […] for 30 s. Biacore Evaluation 3.1 software and GraphPad Prism 8.0 software were used to analyze the data and obtain the response curve.

Sequence of PD-L1 protein (Q9NZQ7 19-290, species assumed): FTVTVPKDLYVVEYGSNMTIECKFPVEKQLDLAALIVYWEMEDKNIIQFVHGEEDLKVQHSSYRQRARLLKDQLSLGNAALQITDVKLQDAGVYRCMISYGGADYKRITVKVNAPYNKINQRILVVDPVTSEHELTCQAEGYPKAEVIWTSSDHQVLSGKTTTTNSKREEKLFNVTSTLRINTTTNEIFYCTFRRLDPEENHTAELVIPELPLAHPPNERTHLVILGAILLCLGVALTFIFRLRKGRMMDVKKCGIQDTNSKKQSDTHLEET
T1 sequence (Q9NZQ7 19-290): as the sequence (Q9NZQ7 19-290, species assumed) above
Sequence of PD-1 protein (Q15116 25-288): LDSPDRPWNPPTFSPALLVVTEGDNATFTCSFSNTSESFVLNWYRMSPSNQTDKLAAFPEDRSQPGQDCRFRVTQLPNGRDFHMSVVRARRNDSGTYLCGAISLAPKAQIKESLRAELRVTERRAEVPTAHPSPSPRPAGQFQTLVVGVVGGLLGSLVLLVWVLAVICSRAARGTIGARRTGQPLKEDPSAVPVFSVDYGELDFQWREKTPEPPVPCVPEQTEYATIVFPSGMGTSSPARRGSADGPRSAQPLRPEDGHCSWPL
Sequence of PD-L1 and PD-1 protein (Q9NZQ7 19-238 limits assumed, species assumed): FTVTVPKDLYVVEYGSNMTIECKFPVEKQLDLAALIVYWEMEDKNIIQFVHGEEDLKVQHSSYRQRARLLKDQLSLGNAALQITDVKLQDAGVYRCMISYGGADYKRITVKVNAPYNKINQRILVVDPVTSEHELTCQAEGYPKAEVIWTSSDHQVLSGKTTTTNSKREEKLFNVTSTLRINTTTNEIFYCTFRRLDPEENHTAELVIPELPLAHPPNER

**Q.** For “high-acetyl glucuronoxylogalactoglucomannan [ME-2]”, which “PD-L1 fluorescence intensity in NCI-H157 cells” value (PD-L1 [1]) is on record?
**A.** The value was “concentration dependent inhibition”.

**Q.** What about the “cytotoxicity / proliferation of LLC cells” value (LLC cells) of the same substance?
**A.** Its value is “no obvious cytotoxicity”.

**Q.** What about the “HE staining of vital organs of mice” value ([2]; ME-2 100 mg/kg) of the same substance?
**A.** The value was “did not cause organic changes”.

**Q.** And the “serum indexes of mice” value ([2]; ME-2 100 mg/kg)?
**A.** The value was “consistent with those of the control group”.

**Q.** What about the “tumor growth in model mice” value ([2]; ME-2 100 mg/kg, oral administration, 100 mg/kg) of the same substance?
**A.** Its value is “obvious better than a positive drug; also recorded: effectively inhibited”.

**Q.** What about the “toxic and side effects on mice” value ([2]; ME-2 at the dosage used (100 mg/kg)) of the same substance?
**A.** Its value is “no obvious toxic and side effects”.

**Q.** What about the “body weight of mice” value ([2]; ME-2 experiment, all groups) of the same substance?
**A.** Its value is “no significant difference”.

**Q.** What about the “PD-L1 mRNA level in mouse tumors” value ([2]; qPCR, ME-2 treated mice) of the same substance?
**A.** The value was “significantly reduce”.

**Q.** What about the “PD-1 binding to PD-L1 in NCI-H157 cells” value (PD-L1/PD-1 interaction) of the same substance?
**A.** The value was “decreased”.

**Q.** And the “sensitivity of NCI-H157 cells to killing by Jurkat T cells” value (NCI-H157 cells [3])?
**A.** Its value is “more sensitive to the killing of Jurkat T cells”.

**Q.** And the “cytotoxicity / proliferation of NCI-H157 cells” value (NCI-H157 cells [4])?
**A.** Its value is “no obvious cytotoxicity”.

**Q.** What about the “affinity to PD-1 protein (in words)” value (PD-1 protein) of the same substance?
**A.** Its value is “no affinity”.

**Q.** And the “abundance of PD-L1 in LLC cells” value (PD-L1 [5])?
**A.** Its value is “significantly down-regulated”.

**Q.** What about the “abundance of PD-L1 in NCI-H157 cells” value (PD-L1 [6]) of the same substance?
**A.** Its value is “significantly down-regulated”.

**Q.** What about the “abundance of PD-L1 in SW620 cells” value (PD-L1 [6]) of the same substance?
**A.** Its value is “significantly down-regulated”.

**Q.** What about the “abundance of PD-L1 in U2OS cells” value (PD-L1 [6]) of the same substance?
**A.** Its value is “significantly down-regulated”.

**Q.** What about the “PD-L1 fluorescence intensity in LLC cells” value (PD-L1 [7]) of the same substance?
**A.** Its value is “concentration dependent inhibition”.

**Q.** What about the “affinity to PD-L1 protein (in words)” value (PD-L1 protein) of the same substance?
**A.** The value was “strong affinity”.

**Q.** And the “IFN-γ-induced expression of PD-L1 in A549 cells” value (PD-L1 [8])?
**A.** The value was “significantly down-regulated”.

**Q.** What about the “IFN-γ-induced expression of PD-L1 in HepG-2 cells” value (PD-L1 [8]) of the same substance?
**A.** Its value is “significantly down-regulated”.

**Q.** What about the “IFN-γ-induced expression of PD-L1 in MCF-7 cells” value (PD-L1 [8]) of the same substance?
**A.** The value was “significantly down-regulated”.

**Q.** What about the “binding of PD-L1 and PD-1 protein with increasing concentration of ME-2” value (PD-L1 and PD-1 protein) of the same substance?
**A.** The value was “significantly inhibited”.
